# What was measured:
# Histamine H3 receptor [1] = target: Histamine H3 receptor (Rattus norvegicus, UniProt Q9QYN8); assay: Displacement of [3H]NAMH from rat histamine H3 receptor expressed in CHO cells; assay type: cell-based
# [2] = Metabolic stability of compound in mouse liver microsomes assessed as half life; assay type: ADME, Microsome
# [3] = Oral bioavailability in cynomolgus monkey at 1 mg/kg after 6 to 24 hrs by LC-MS/MS analysis; assay type: ADME, organism-based, Macaca fascicularis; settings: in vivo
# Lung = assay: Clearance in Sprague-Dawley rat lung at 10 mg/kg, po administered as single dose after 24 hrs by LC-MS/MS analysis; assay type: ADME, organism-based; design: dose 10 mg/kg, route oral; settings: in vivo
# [4] = Terminal half life in Beagle dog at 1 mg/kg, iv after 6 to 24 hrs by LC-MS/MS analysis; assay type: ADME, organism-based, Canis lupus familiaris; design: dose 1 mg/kg, route intravenous; settings: in vivo, read-out: beta t1/2 (converted)
# [5] = Cmax in cynomolgus monkey at 1 mg/kg, po after 6 to 24 hrs by LC-MS/MS analysis; assay type: ADME, organism-based, Macaca fascicularis; design: dose 1 mg/kg, route oral; settings: in vivo
# Canis familiaris = assay: Cmax in Beagle dog at 3 mg/kg, po after 6 to 24 hrs by LC-MS/MS analysis; assay type: ADME, organism-based, Canis lupus familiaris; design: dose 3 mg/kg, route oral; settings: in vivo
# Plasma = assay: Clearance in Sprague-Dawley rat plasma at 10 mg/kg, po administered as single dose after 24 hrs by LC-MS/MS analysis; assay type: ADME, organism-based; design: dose 10 mg/kg, route oral; settings: in vivo
# [6] = Metabolic stability of compound in dog liver microsomes assessed as compound remaining at 40 mins; assay type: ADME, Canis lupus familiaris, Microsome; settings: read-out: Stability
# [7] = Plasma protein binding in Beagle dog after 1 hr by LC/MS/MS analysis; assay type: ADME, cell-free, Canis lupus familiaris; settings: read-out: PPB (converted)
# [8] = Fraction unbound in rat brain; assay type: ADME, tissue-based
# [9] = Systemic clearance in fasted Sprague-Dawley rat at 1 mg/kg, iv after 6 to 24 hrs by LC-MS/MS analysis; assay type: ADME, organism-based; design: dose 1 mg/kg, route intravenous; settings: in vivo
# [10] = Terminal half life in fasted Sprague-Dawley rat at 1 mg/kg, iv after 6 to 24 hrs by LC-MS/MS analysis; assay type: ADME, organism-based; design: dose 1 mg/kg, route intravenous; settings: in vivo, read-out: beta t1/2 (converted)
# [11] = Terminal half life in fasted Sprague-Dawley rat at 3 mg/kg, po after 6 to 24 hrs by LC-MS/MS analysis; assay type: ADME, organism-based; design: dose 3 mg/kg, route oral; settings: in vivo, read-out: beta t1/2 (converted)
# Kidney = assay: Clearance in Sprague-Dawley rat kidney at 10 mg/kg, po administered as single dose after 24 hrs by LC-MS/MS analysis; assay type: ADME, organism-based; design: dose 10 mg/kg, route oral; settings: in vivo
# [12] = Metabolic stability of compound in mouse liver microsomes assessed as compound remaining at 40 mins; assay type: ADME, Microsome; settings: read-out: Stability
# [13] = Oral bioavailability in Beagle dog at 3 mg/kg after 6 to 24 hrs by LC-MS/MS analysis; assay type: ADME, organism-based, Canis lupus familiaris; settings: in vivo
# Brain = assay: Clearance in Sprague-Dawley rat brain at 10 mg/kg, po administered as single dose after 24 hrs by LC-MS/MS analysis; assay type: ADME, organism-based; design: dose 10 mg/kg, route oral; settings: in vivo
# [14] = AUC in cynomolgus monkey at 1 mg/kg, po after 6 to 24 hrs by LC-MS/MS analysis; assay type: ADME, organism-based, Macaca fascicularis; design: dose 1 mg/kg, route oral; settings: plasma
# [15] = Oral bioavailability in fasted Sprague-Dawley rat at 3 mg/kg, po after 6 to 24 hrs by LC-MS/MS analysis; assay type: ADME, organism-based; settings: in vivo
# Cytochrome P450 3A4 = Cytochrome P450 3A4 (Homo sapiens, UniProt P08684); assay: Inhibition of CYP3A4; assay type: ADME
# [16] = Plasma protein binding in rat after 1 hr by LC/MS/MS analysis; assay type: ADME, cell-free; settings: read-out: PPB (converted)
# [17] = Clearance in Beagle dog at 1 mg/kg, iv after 6 to 24 hrs by LC-MS/MS analysis; assay type: ADME, organism-based, Canis lupus familiaris; design: dose 1 mg/kg, route intravenous; settings: in vivo
# [18] = Metabolic stability of compound in human liver microsomes assessed as half life; assay type: ADME, Microsome
# [19] = Metabolic stability of compound in rat liver microsomes assessed as half life; assay type: ADME, Microsome
# [20] = Metabolic stability of compound in dog liver microsomes assessed as half life; assay type: ADME, Canis lupus familiaris, Microsome
# [21] = Terminal half life in cynomolgus monkey at 1 mg/kg, po after 6 to 24 hrs by LC-MS/MS analysis; assay type: ADME, organism-based, Macaca fascicularis; design: dose 1 mg/kg, route oral; settings: in vivo, read-out: beta t1/2 (converted)
# [22] = Terminal half life in cynomolgus monkey at 1 mg/kg, iv after 6 to 24 hrs by LC-MS/MS analysis; assay type: ADME, organism-based, Macaca fascicularis; design: dose 1 mg/kg, route intravenous; settings: in vivo, read-out: beta t1/2 (converted)
# [23] = Metabolic stability of compound in rat liver microsomes assessed as compound remaining at 40 mins; assay type: ADME, Microsome; settings: read-out: Stability
# Heart = assay: Clearance in Sprague-Dawley rat heart at 10 mg/kg, po administered as single dose after 24 hrs by LC-MS/MS analysis; assay type: ADME, organism-based; design: dose 10 mg/kg, route oral; settings: in vivo
# [24] = Terminal half life in Beagle dog at 3 mg/kg, po after 6 to 24 hrs by LC-MS/MS analysis; assay type: ADME, organism-based, Canis lupus familiaris; design: dose 3 mg/kg, route oral; settings: in vivo, read-out: beta t1/2 (converted)
# Spleen = assay: Clearance in Sprague-Dawley rat spleen at 10 mg/kg, po administered as single dose after 24 hrs by LC-MS/MS analysis; assay type: ADME, organism-based; design: dose 10 mg/kg, route oral; settings: in vivo
# Cytochrome P450 2C19 = Cytochrome P450 2C19 (Homo sapiens, UniProt P33261); assay: Inhibition of CYP2C19; assay type: ADME
# Cytochrome P450 2D6 = Cytochrome P450 2D6 (Homo sapiens, UniProt P10635); assay: Inhibition of CYP2D6; assay type: ADME
# [25] = Volume of distribution in cynomolgus monkey at 1 mg/kg, iv after 6 to 24 hrs by LC-MS/MS analysis; assay type: ADME, organism-based, Macaca fascicularis; design: dose 1 mg/kg, route intravenous; settings: in vivo
# [26] = AUC in fasted Sprague-Dawley rat at 3 mg/kg, po after 6 to 24 hrs by LC-MS/MS analysis; assay type: ADME, organism-based; design: dose 3 mg/kg, route oral; settings: plasma
# [27] = Ratio of drug uptake in brain to plasma of fasted Sprague-Dawley rat at 1 mg/kg, iv after 6 to 24 hrs by LC-MS/MS analysis; assay type: ADME, organism-based; design: dose 1 mg/kg, route intravenous; settings: read-out: BPR
# Liver = assay: Clearance in Sprague-Dawley rat liver at 10 mg/kg, po administered as single dose after 24 hrs by LC-MS/MS analysis; assay type: ADME, organism-based; design: dose 10 mg/kg, route oral; settings: in vivo
# Cytochrome P450 1A2 = Cytochrome P450 1A2 (Homo sapiens, UniProt P05177); assay: Inhibition of CYP1A2; assay type: ADME
# [28] = AUC in Beagle dog at 3 mg/kg, po after 6 to 24 hrs by LC-MS/MS analysis; assay type: ADME, organism-based, Canis lupus familiaris; design: dose 3 mg/kg, route oral; settings: plasma
# [29] = Plasma protein binding in human after 1 hr by LC/MS/MS analysis; assay type: ADME, cell-free; settings: read-out: PPB (converted)
# [30] = Ratio of drug uptake in brain to plasma of Beagle dog at 5 mg/kg, po after 6 to 24 hrs by LC-MS/MS analysis; assay type: ADME, organism-based, Canis lupus familiaris; design: dose 5 mg/kg, route oral; settings: read-out: BPR
# [31] = Metabolic stability of compound in human liver microsomes assessed as compound remaining at 40 mins; assay type: ADME, Microsome; settings: read-out: Stability
# [32] = Clearance in cynomolgus monkey at 1 mg/kg, iv after 6 to 24 hrs by LC-MS/MS analysis; assay type: ADME, organism-based, Macaca fascicularis; design: dose 1 mg/kg, route intravenous; settings: in vivo
# [33] = Volume of distribution in Beagle dog at 1 mg/kg, iv after 6 to 24 hrs by LC-MS/MS analysis; assay type: ADME, organism-based, Canis lupus familiaris; design: dose 1 mg/kg, route intravenous; settings: in vivo
# [34] = Volume of distribution in fasted Sprague-Dawley rat at 1 mg/kg, iv after 6 to 24 hrs by LC-MS/MS analysis; assay type: ADME, organism-based; design: dose 1 mg/kg, route intravenous; settings: in vivo
# Cytochrome P450 2C9 = Cytochrome P450 2C9 (Homo sapiens, UniProt P11712); assay: Inhibition of CYP2C9; assay type: ADME
# [35] = Cmax in fasted Sprague-Dawley rat at 3 mg/kg, po after 6 to 24 hrs by LC-MS/MS analysis; assay type: ADME, organism-based; design: dose 3 mg/kg, route oral; settings: in vivo
# Histamine H3 receptor [36] = target: T1, Histamine H3 receptor (Homo sapiens, UniProt Q9Y5N1); assay: Displacement of [3H]NAMH from human histamine H3 receptor expressed in CHO cells; assay type: cell-based
# [37] = Oral bioavailability in fasted Sprague-Dawley rat at 5 mg/kg after 6 hrs by LC-MS/MS analysis; assay type: ADME, organism-based; settings: in vivo
# [38] = Dissociation constant, pKa of the compound; assay type: physicochemical
# [39] = target: Histamine H4 receptor (Homo sapiens) (UniProt Q9H3N8); assay: Inhibition of human histamine H4 receptor at 10 uM
# Histamine H3 receptor [40] = target: T1, Histamine H3 receptor; assay: Antagonist activity against human histamine H3 receptor assessed as inhibition of R-alpha-methylhistamine induced [35S]GTPgammaS binding; assay type: functional
# [41] = target: Histamine H1 receptor (Homo sapiens) (UniProt P35367); assay: Inhibition of human histamine H1 receptor at 10 uM
# [42] = target: Histamine H2 receptor (Homo sapiens) (UniProt P25021); assay: Inhibition of human histamine H2 receptor at 10 uM
# [43] = Bioavailability in fasted Sprague-Dawley rat at 1 mg/kg, iv after 6 to 24 hrs by LC-MS/MS analysis; assay type: ADME, organism-based; settings: in vivo
# Sequence of Histamine H3 receptor (Rattus norvegicus, UniProt Q9QYN8) (Q9QYN8 whole entry): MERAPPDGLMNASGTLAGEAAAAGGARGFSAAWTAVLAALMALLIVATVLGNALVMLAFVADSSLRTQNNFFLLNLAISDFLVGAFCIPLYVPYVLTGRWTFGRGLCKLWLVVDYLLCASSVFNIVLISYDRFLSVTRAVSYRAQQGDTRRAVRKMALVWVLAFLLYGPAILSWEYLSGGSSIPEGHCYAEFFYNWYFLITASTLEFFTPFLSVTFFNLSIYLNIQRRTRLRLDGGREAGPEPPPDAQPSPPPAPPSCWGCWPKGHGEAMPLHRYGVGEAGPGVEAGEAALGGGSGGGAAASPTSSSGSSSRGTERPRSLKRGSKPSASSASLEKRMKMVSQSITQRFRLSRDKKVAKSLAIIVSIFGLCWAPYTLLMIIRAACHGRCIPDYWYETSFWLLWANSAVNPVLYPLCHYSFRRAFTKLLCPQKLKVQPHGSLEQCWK
# T1 sequence (Q9Y5N1 whole entry): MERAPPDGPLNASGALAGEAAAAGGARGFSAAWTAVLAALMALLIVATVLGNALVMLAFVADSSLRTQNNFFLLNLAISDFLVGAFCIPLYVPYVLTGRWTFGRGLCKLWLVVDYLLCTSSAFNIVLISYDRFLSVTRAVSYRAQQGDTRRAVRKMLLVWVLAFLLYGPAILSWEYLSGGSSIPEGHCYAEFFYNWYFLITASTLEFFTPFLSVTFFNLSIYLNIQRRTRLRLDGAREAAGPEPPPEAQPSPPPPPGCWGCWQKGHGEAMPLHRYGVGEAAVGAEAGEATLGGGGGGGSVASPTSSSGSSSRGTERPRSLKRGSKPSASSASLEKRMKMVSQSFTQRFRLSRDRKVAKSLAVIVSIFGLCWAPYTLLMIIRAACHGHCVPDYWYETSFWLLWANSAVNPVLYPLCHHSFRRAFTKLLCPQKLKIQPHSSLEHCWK
# Sequence of Histamine H4 receptor (Homo sapiens) (Q9H3N8 whole entry): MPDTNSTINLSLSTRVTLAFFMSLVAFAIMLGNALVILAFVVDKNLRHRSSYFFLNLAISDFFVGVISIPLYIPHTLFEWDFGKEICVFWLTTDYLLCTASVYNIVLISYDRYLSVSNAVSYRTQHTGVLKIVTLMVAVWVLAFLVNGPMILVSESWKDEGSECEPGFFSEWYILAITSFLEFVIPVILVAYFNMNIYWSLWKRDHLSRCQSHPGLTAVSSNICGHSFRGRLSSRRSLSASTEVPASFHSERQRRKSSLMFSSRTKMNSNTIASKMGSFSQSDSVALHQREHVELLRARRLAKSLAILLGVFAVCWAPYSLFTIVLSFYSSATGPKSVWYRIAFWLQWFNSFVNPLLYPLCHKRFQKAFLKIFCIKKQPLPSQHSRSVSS
# Sequence of Cytochrome P450 1A2 (P05177 whole entry): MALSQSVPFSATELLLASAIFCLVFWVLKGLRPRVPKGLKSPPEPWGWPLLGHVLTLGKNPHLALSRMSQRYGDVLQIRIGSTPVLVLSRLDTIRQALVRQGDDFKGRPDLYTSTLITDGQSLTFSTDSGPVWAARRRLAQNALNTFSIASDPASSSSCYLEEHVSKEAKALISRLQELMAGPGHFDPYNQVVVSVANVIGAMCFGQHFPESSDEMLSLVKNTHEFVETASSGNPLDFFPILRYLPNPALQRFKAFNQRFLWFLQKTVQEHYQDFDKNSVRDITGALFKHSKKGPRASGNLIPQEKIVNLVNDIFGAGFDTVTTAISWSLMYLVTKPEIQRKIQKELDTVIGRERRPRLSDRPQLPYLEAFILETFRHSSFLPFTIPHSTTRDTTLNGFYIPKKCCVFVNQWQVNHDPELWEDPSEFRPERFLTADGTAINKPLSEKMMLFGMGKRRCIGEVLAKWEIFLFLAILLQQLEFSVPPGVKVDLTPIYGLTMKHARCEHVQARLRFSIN
# Sequence of Cytochrome P450 2C9 (P11712 whole entry): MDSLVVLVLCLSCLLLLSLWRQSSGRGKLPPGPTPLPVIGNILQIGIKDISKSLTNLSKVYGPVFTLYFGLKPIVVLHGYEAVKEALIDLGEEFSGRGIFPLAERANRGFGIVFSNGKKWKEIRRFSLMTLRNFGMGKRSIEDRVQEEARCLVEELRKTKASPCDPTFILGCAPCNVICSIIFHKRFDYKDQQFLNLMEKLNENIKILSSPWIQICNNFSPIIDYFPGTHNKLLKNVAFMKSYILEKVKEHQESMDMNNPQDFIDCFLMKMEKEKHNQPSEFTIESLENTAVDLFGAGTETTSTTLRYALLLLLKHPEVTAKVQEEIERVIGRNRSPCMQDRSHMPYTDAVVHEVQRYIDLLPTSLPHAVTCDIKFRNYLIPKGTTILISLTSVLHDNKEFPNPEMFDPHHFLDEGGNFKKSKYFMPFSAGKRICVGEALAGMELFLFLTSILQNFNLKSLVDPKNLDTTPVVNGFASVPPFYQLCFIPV
# Sequence of Cytochrome P450 2D6 (P10635 whole entry): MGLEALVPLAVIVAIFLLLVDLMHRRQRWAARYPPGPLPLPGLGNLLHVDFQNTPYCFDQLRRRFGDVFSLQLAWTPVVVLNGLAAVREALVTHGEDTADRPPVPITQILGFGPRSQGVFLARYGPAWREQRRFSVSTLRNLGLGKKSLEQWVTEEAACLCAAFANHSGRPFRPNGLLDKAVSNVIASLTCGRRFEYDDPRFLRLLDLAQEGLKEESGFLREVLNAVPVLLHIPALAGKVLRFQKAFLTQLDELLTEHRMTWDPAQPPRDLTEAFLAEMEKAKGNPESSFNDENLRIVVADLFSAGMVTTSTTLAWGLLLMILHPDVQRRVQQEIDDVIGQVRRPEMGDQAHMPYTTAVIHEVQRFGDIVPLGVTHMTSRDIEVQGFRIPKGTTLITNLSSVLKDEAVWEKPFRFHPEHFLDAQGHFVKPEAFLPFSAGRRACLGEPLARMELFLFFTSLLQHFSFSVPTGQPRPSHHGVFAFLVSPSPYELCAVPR
# Sequence of Histamine H1 receptor (Homo sapiens) (P35367 whole entry): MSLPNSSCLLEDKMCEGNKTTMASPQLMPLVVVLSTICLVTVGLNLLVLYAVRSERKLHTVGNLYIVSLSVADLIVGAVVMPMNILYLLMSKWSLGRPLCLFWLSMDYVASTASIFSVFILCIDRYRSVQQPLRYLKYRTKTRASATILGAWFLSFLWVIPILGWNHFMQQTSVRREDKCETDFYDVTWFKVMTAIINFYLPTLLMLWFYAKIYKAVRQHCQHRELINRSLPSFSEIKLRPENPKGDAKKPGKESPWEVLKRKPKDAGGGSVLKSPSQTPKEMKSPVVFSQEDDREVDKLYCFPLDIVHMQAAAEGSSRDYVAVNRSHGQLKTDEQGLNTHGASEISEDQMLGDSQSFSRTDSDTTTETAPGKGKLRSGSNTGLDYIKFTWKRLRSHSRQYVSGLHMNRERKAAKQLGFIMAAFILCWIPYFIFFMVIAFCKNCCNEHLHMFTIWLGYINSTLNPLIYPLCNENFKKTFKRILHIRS
# Sequence of Histamine H2 receptor (Homo sapiens) (P25021 whole entry): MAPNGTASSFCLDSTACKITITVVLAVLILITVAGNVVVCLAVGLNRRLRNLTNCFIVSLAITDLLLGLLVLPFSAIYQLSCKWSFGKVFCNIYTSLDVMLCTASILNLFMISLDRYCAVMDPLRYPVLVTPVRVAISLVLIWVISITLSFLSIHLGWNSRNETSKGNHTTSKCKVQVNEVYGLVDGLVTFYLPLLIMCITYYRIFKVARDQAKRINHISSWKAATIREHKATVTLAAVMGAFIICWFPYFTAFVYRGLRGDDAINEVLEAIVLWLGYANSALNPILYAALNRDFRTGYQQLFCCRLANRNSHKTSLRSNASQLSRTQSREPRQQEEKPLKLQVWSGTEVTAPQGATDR
# Sequence of Cytochrome P450 3A4 (P08684 whole entry): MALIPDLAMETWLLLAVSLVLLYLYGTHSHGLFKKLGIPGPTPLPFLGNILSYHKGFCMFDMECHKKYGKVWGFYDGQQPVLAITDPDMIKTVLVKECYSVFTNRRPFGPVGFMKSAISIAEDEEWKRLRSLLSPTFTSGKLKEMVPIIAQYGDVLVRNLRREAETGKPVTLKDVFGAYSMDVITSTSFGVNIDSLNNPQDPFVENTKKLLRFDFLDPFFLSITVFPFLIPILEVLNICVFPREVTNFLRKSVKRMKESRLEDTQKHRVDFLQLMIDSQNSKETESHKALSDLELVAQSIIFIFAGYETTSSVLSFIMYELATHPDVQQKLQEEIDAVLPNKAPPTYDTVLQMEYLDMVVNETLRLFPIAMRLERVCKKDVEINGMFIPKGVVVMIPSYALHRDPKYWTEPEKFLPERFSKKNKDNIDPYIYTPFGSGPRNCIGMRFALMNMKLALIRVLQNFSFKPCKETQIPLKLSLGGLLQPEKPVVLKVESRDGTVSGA
# Sequence of Cytochrome P450 2C19 (P33261 whole entry): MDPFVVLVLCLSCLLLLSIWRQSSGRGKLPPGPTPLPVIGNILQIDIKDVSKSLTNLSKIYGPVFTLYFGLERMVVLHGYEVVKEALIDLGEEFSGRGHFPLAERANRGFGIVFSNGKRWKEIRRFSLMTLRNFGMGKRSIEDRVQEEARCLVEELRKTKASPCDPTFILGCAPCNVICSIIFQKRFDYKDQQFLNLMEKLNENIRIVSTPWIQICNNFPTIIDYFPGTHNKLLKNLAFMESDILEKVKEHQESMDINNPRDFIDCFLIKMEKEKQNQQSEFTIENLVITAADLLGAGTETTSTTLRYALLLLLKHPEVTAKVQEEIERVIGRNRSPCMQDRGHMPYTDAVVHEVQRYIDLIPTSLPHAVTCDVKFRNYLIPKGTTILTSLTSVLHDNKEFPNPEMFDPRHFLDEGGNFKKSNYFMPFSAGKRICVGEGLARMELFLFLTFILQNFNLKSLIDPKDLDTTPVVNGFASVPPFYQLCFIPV
smiles,measurement,setting,value
Cn1nc(-c2ccc(OCCCN3CCC[C@@H]3CO)cc2)ccc1=O,Ki,Histamine H3 receptor [1],427 nM
C[C@@H]1CCCN1CCCOc1ccc(-c2ccc(=O)[nH]n2)cc1.Cl [IRDABISANT HYDROCHLORIDE],half-life,[2],> 0.667 h
same,bioavailability,[3],83%
same,CL,Lung,> 98%
same,half-life,[4],2.9 h
same,Cmax,[5],760 ng/mL
same,Cmax,Canis familiaris,230 ng/mL
same,CL,Plasma,> 98%
same,remaining at 40 min,[6],> 98%
same,fraction unbound at 1 h,[7],0.68
same,fraction unbound,[8],0.4
same,clearance,[9],42 mL/min/kg
same,half-life,[10],2.6 h
same,half-life,[11],2.9 h
same,CL,Kidney,> 98%
same,remaining at 40 min,[12],> 98%
same,bioavailability,[13],22%
same,CL,Brain,> 98%
same,AUC,[14],1920 ng·h/mL
same,bioavailability,[15],83%
same,IC50,Cytochrome P450 3A4,> 30000 nM
same,fraction unbound at 1 h,[16],0.61
same,clearance,[17],13.2 mL/min/kg
same,half-life,[18],> 0.667 h
same,half-life,[19],> 0.667 h
same,half-life,[20],> 0.667 h
same,half-life,[21],5 h
same,half-life,[22],5.4 h
same,remaining at 40 min,[23],> 98%
same,CL,Heart,> 98%
same,half-life,[24],2.7 h
same,CL,Spleen,> 98%
same,IC50,Cytochrome P450 2C19,> 30000 nM
same,IC50,Cytochrome P450 2D6,> 30000 nM
same,Vd,[25],3.8 L/kg
same,AUC,[26],984 ng·h/mL
same,Kp,[27],2.6
same,CL,Liver,> 98%
same,IC50,Cytochrome P450 1A2,> 30000 nM
same,AUC,[28],1190 ng·h/mL
same,fraction unbound at 1 h,[29],0.56
same,Kp,[30],2.4
same,remaining at 40 min,[31],> 98%
same,clearance,[32],7.7 mL/min/kg
same,Vd,[33],3.5 L/kg
same,Vd,[34],9.4 L/kg
same,IC50,Cytochrome P450 2C9,> 30000 nM
same,Cmax,[35],270 ng/mL
C[C@@H]1CCCN1CCCOc1ccc(-c2ccc(=O)n(Cc3ccccc3)n2)cc1,Ki,Histamine H3 receptor [36],6.9 nM
same,clearance,[9],46 mL/min/kg
same,half-life,[10],0.7 h
same,Ki,Histamine H3 receptor [1],12 nM
same,Kp,[27],3.8
same,bioavailability,[37],< 1%
O=c1ccc(-c2ccc(OCCCN3CCOCC3)cc2)n[nH]1,pKa,[38],7.1
same,Ki,Histamine H3 receptor [36],767 nM
same,Ki,Histamine H3 receptor [1],822 nM
C[C@@H]1CCCN1CCCOc1ccc(-c2ccc(=O)[nH]n2)cc1,inhibition,[39],< 11%
same,Kb,Histamine H3 receptor [40],0.4 nM
same,inhibition,[41],< 11%
same,inhibition,[42],< 11%
CC(C)n1nc(-c2ccc(OCCCN3CCC[C@H]3C)cc2)ccc1=O,Ki,Histamine H3 receptor [36],4.8 nM
same,clearance,[9],258 mL/min/kg
same,half-life,[10],0.3 h
same,Ki,Histamine H3 receptor [1],7.6 nM
same,Kp,[27],2.1
same,bioavailability,[37],5%
Cn1nc(-c2ccc(OCCCN3CCCCC3)cc2)ccc1=O,Ki,Histamine H3 receptor [36],21 nM
same,clearance,[9],50 mL/min/kg
same,half-life,[10],1.2 h
same,Ki,Histamine H3 receptor [1],106 nM
same,Kp,[27],5.3
same,bioavailability,[37],22%
C[C@@H]1CCCN1CCc1cc2cc(-c3ccc(C#N)cc3)ccc2o1,bioavailability,[43],> 18%
same,clearance,[9],39 mL/min/kg
same,half-life,[10],1.5 h
same,Kp,[27],32
